Broadly, the pIC50 is the IC50 on a negative log10 scale, so that one unit is a factor of ten.

pIC50: −log10 of the molar value.

T1 sequence (P20272 whole entry): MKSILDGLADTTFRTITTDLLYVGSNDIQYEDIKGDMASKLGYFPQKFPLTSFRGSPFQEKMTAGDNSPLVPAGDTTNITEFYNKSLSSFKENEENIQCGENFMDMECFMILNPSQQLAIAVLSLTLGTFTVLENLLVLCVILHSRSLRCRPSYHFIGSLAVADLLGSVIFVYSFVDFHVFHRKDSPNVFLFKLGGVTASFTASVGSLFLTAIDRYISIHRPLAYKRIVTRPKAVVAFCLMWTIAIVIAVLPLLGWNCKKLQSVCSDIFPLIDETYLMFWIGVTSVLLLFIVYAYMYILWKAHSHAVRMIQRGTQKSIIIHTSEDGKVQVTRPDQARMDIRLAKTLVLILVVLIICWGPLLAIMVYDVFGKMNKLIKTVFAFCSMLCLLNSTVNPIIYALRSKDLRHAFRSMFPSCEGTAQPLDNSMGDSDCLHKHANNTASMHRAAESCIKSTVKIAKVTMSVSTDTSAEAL

The assay concerns the target T1, Cannabinoid-1 receptor (CB1R) (Rattus norvegicus, UniProt P20272).
T1 construct: The tissue obtained from the brain of SD rats was homogenized; from tissue; host or cells: brain of SD rats (membrane pellet of the homogenate)
Put plainly: Cannabinoid-1 receptor (CB1R) binding affinity assay ([3H]CP-55940, rat CB-1 receptor binding protocol). The following applies: brain tissue of SD rats, [3H]CP-55940, 30° C. 60 min; read-out: IC50.
In the case of `CC(C)(C)c1nnc(-c2nn(-c3ccc(Cl)cc3Cl)c(-c3ccc(Cl)cc3)c2Cl)s1` [Example 540, 2-tert-butyl-5-(4-chloro-5-(4-chlorophenyl)-1-(2,4-dichlorophenyl)-1H-pyrazol-3-yl)-1,3,4-thiadiazole], the pIC50 was 7.01. For the molecule `CC(C)(C)c1nnc(-c2nn(-c3ccc(Cl)cc3Cl)c(-c3ccc(Cl)cc3)c2Br)s1` [Example 541, 2-(4-bromo-5-(4-chlorophenyl)-1-(2,4-dichlorophenyl)-1H-pyrazol-3-yl)-5-tert-butyl-1,3,4-thiadiazole], the pIC50 was 7.64.

Turning to `CCC(C)c1nnc(-c2nn(-c3ccc(Cl)cc3Cl)c(-c3ccc(Cl)cc3)c2Br)s1` (stereo not drawn) [Example 542, 2-(4-bromo-5-(4-chlorophenyl)-1-(2,4-dichlorophenyl)-1H-pyrazol-3-yl)-5-sec-butyl-1,3,4-thiadiazole], the pIC50 was 7.28. Turning to `Clc1ccc(-c2c(Br)c(-c3nnc(C4CCC4)s3)nn2-c2ccc(Cl)cc2Cl)cc1` [Example 543, 2-(4-bromo-5-(4-chlorophenyl)-1-(2,4-dichlorophenyl)-1H-pyrazol-3-yl)-5-cyclobutyl-1,3,4-thiadiazole], the negative-log IC50 (pIC50) is 7.15.

For the molecule `Clc1ccc(-c2c(Br)c(-c3nnc(C4CCCCC4)s3)nn2-c2ccc(Cl)cc2Cl)cc1` [Example 544, 2-(4-bromo-5-(4-chlorophenyl)-1-(2,4-dichlorophenyl)-1H-pyrazol-3-yl)-5-cyclohexyl-1,3,4-thiadiazole], the pIC50 was 7.04. With `CCC(C)(C)c1nnc(-c2nn(-c3ccc(Cl)cc3Cl)c(-c3ccc(Cl)cc3)c2Br)s1` [Example 545, 2-(4-bromo-5-(4-chlorophenyl)-1-(2,4-dichlorophenyl)-1H-pyrazol-3-yl)-5-tert-pentyl-1,3,4-thiadiazole], the pIC50 was 7.63. As for `CC(C)(c1ccc(Cl)cc1)c1nnc(-c2nn(-c3ccc(Cl)cc3Cl)c(-c3ccc(Cl)cc3)c2Br)s1` [Example 546, 2-(4-bromo-5-(4-chlorophenyl)-1-(2,4-dichlorophenyl)-1H-pyrazol-3-yl)-5-(2-(4-chlorophenyl)propan-2-yl)-1,3,4-thiadiazole], the negative-log IC50 (pIC50) was 7.53. With `Clc1ccc(-c2c(Br)c(-c3nnc(C4(c5ccc(Cl)cc5)CC4)s3)nn2-c2ccc(Cl)cc2Cl)cc1` [Example 547, 2-(4-bromo-5-(4-chlorophenyl)-1-(2,4-dichlorophenyl)-1H-pyrazol-3-yl)-5-(1-(4-chlorophenyl)cyclopropyl)-1,3,4-thiadiazole], the negative-log IC50 (pIC50) was 7.89. The result for `CCCn1nnnc1-c1nn(-c2ccc(Cl)cc2Cl)c(-c2ccc(Cl)cc2)c1C` [Example 565, 5-(5-(4-Chlorophenyl)-1-(2,4-dichlorophenyl)-4-methyl-1H-pyrazol-3-yl)-1-propyl-1H-tetrazole] reads 7.16. Regarding `CCCn1nnc(-c2nn(-c3ccc(Cl)cc3Cl)c(-c3ccc(Cl)cc3)c2C)n1` [Example 566, 5-(5-(4-Chlorophenyl)-1-(2,4-dichlorophenyl)-4-methyl-1H-pyrazol-3-yl)-2-propyl-2H-tetrazole], the pIC50 was 7.21.

On to `CCn1nnnc1-c1nn(-c2ccc(Cl)cc2Cl)c(-c2ccc(Cl)cc2)c1C` [Example 569, 5-(5-(4-Chlorophenyl)-1-(2,4-dichlorophenyl)-4-methyl-1H-pyrazol-3-yl)-1-ethyl-1H-tetrazole], for which the negative-log IC50 (pIC50) was 6.69. In the case of `CCCCCn1nnnc1-c1nn(-c2ccc(Cl)cc2Cl)c(-c2ccc(Cl)cc2)c1C` [Example 573, 5-(5-(4-Chlorophenyl)-1-(2,4-dichlorophenyl)-4-methyl-1H-pyrazol-3-yl)-1-pentyl-1H-tetrazole], the negative logarithm of the IC50 (pIC50) is 6.74.

For `CCCCCn1nnc(-c2nn(-c3ccc(Cl)cc3Cl)c(-c3ccc(Cl)cc3)c2C)n1` [Example 574, 5-(5-(4-Chlorophenyl)-1-(2,4-dichlorophenyl)-4-methyl-1H-pyrazol-3-yl)-2-pentyl-2H-tetrazole], the pIC50 is 6.91. Take `Cc1c(-c2nnnn2C(C)C)nn(-c2ccc(Cl)cc2Cl)c1-c1ccc(Cl)cc1` [Example 575, 5-(5-(4-Chlorophenyl)-1-(2,4-dichlorophenyl)-4-methyl-1H-pyrazol-3-yl)-1-isopropyl-1H-tetrazole]: the pIC50 was 6.78.

Turning to `Cc1c(-c2nnn(C(C)C)n2)nn(-c2ccc(Cl)cc2Cl)c1-c1ccc(Cl)cc1` [Example 576, 5-(5-(4-Chlorophenyl)-1-(2,4-dichlorophenyl)-4-methyl-1H-pyrazol-3-yl)-2-isopropyl-2H-tetrazole], the negative logarithm of the IC50 (pIC50) was 7.00. The result for `Cc1c(-c2nnnn2C2CCCC2)nn(-c2ccc(Cl)cc2Cl)c1-c1ccc(Cl)cc1` [Example 577, 5-(5-(4-Chlorophenyl)-1-(2,4-dichlorophenyl)-4-methyl-1H-pyrazol-3-yl)-1-cyclopentyl-1H-tetrazole] reads 7.58; that for `Cc1c(-c2nnn(C3CCCC3)n2)nn(-c2ccc(Cl)cc2Cl)c1-c1ccc(Cl)cc1` [Example 578, 5-(5-(4-Chlorophenyl)-1-(2,4-dichlorophenyl)-4-methyl-1H-pyrazol-3-yl)-2-cyclopentyl-2H-tetrazole], 7.17; that for `Cc1c(-c2nnn(C3CCCCC3)n2)nn(-c2ccc(Cl)cc2Cl)c1-c1ccc(Cl)cc1` [Example 580, 5-(5-(4-Chlorophenyl)-1-(2,4-dichlorophenyl)-4-methyl-1H-pyrazol-3-yl)-2-cyclohexyl-2H-tetrazole], 7.12. Regarding `Cc1c(-c2nnn(Cc3ccccc3)n2)nn(-c2ccc(Cl)cc2Cl)c1-c1ccc(Cl)cc1` [Example 582, 2-Benzyl-5-(5-(4-chlorophenyl)-1-(2,4-dichlorophenyl)-4-methyl-1H-pyrazol-3-yl)-2H-tetrazole], the negative logarithm of the IC50 (pIC50) was 6.98. Regarding `Cc1c(-c2nnnn2Cc2ccccn2)nn(-c2ccc(Cl)cc2Cl)c1-c1ccc(Cl)cc1` [Example 583, 2-((5-(5-(4-Chlorophenyl)-1-(2,4-dichlorophenyl)-4-methyl-1H-pyrazol-3-yl)-1H-tetrazol-1-yl)methyl)pyridine], the negative-log IC50 (pIC50) is 6.98. The result for `Cc1c(-c2nnn(Cc3ccccn3)n2)nn(-c2ccc(Cl)cc2Cl)c1-c1ccc(Cl)cc1` [Example 584, 2-((5-(5-(4-Chlorophenyl)-1-(2,4-dichlorophenyl)-4-methyl-1H-pyrazol-3-yl)-2H-tetrazol-2-yl)methyl)pyridine] reads 7.03; that for `Cc1c(-c2nnnn2Cc2cccnc2)nn(-c2ccc(Cl)cc2Cl)c1-c1ccc(Cl)cc1` [Example 585, 3-((5-(5-(4-Chlorophenyl)-1-(2,4-dichlorophenyl)-4-methyl-1H-pyrazol-3-yl)-1H-tetrazol-1-yl)methyl)pyridine], 6.99; that for `Cc1c(-c2nnn(Cc3cccnc3)n2)nn(-c2ccc(Cl)cc2Cl)c1-c1ccc(Cl)cc1` [Example 586, 3-((5-(5-(4-Chlorophenyl)-1-(2,4-dichlorophenyl)-4-methyl-1H-pyrazol-3-yl)-2H-tetrazol-2-yl)methyl)pyridine], 7.00.

With `Cc1c(-c2nnnn2Cc2ccncc2)nn(-c2ccc(Cl)cc2Cl)c1-c1ccc(Cl)cc1` [Example 587, 4-((5-(5-(4-Chlorophenyl)-1-(2,4-dichlorophenyl)-4-methyl-1H-pyrazol-3-yl)-1H-tetrazol-1-yl)methyl)pyridine], the negative-log IC50 (pIC50) is 7.05. For `Cc1c(-c2nnn(Cc3ccncc3)n2)nn(-c2ccc(Cl)cc2Cl)c1-c1ccc(Cl)cc1` [Example 588, 4-((5-(5-(4-Chlorophenyl)-1-(2,4-dichlorophenyl)-4-methyl-1H-pyrazol-3-yl)-2H-tetrazol-2-yl)methyl)pyridine], the negative logarithm of the IC50 (pIC50) was 6.87. `Cc1c(-c2nnn(CC3CCCCC3)n2)nn(-c2ccc(Cl)cc2Cl)c1-c1ccc(Cl)cc1` [Example 590, 5-(5-(4-Chlorophenyl)-1-(2,4-dichlorophenyl)-4-methyl-1H-pyrazol-3-yl)-2-(cyclohexylmethyl)-2H-tetrazole]: the negative logarithm of the IC50 (pIC50) was 7.07. With `Cc1c(-c2nnnn2CCc2ccccc2)nn(-c2ccc(Cl)cc2Cl)c1-c1ccc(Cl)cc1` [Example 591, 5-(5-(4-Chlorophenyl)-1-(2,4-dichlorophenyl)-4-methyl-1H-pyrazol-3-yl)-1-phenethyl-1H-tetrazole], the negative logarithm of the IC50 (pIC50) was 6.87.

Turning to `Cc1c(-c2nnn(CCc3ccccc3)n2)nn(-c2ccc(Cl)cc2Cl)c1-c1ccc(Cl)cc1` [Example 592, 5-(5-(4-Chlorophenyl)-1-(2,4-dichlorophenyl)-4-methyl-1H-pyrazol-3-yl)-2-phenethyl-2H-tetrazole], the negative logarithm of the IC50 (pIC50) is 6.91. Regarding `Cc1c(-c2nnnn2Cc2ccco2)nn(-c2ccc(Cl)cc2Cl)c1-c1ccc(Cl)cc1` [Example 593, 5-(5-(4-Chlorophenyl)-1-(2,4-dichlorophenyl)-4-methyl-1H-pyrazol-3-yl)-1-(furan-2-ylmethyl)-1H-tetrazole], the pIC50 was 7.27. On to `Cc1c(-c2nnn(Cc3ccco3)n2)nn(-c2ccc(Cl)cc2Cl)c1-c1ccc(Cl)cc1` [Example 594, 5-(5-(4-Chlorophenyl)-1-(2,4-dichlorophenyl)-4-methyl-1H-pyrazol-3-yl)-2-(furan-2-ylmethyl)-2H-tetrazole], for which the pIC50 was 7.03. `Cc1c(-c2nnnn2Cc2ccoc2)nn(-c2ccc(Cl)cc2Cl)c1-c1ccc(Cl)cc1` [Example 595, 5-(5-(4-Chlorophenyl)-1-(2,4-dichlorophenyl)-4-methyl-1H-pyrazol-3-yl)-1-(furan-3-ylmethyl)-1H-tetrazole]: the negative logarithm of the IC50 (pIC50) is 6.98.

For `Cc1c(-c2nnn(Cc3ccoc3)n2)nn(-c2ccc(Cl)cc2Cl)c1-c1ccc(Cl)cc1` [Example 596, 5-(5-(4-Chlorophenyl)-1-(2,4-dichlorophenyl)-4-methyl-1H-pyrazol-3-yl)-2-(furan-3-ylmethyl)-2H-tetrazole], the pIC50 is 6.71. The result for `Cc1c(-c2nnnn2Cc2ccsc2)nn(-c2ccc(Cl)cc2Cl)c1-c1ccc(Cl)cc1` [Example 597, 5-(5-(4-Chlorophenyl)-1-(2,4-dichlorophenyl)-4-methyl-1H-pyrazol-3-yl)-1-(thiophen-3-ylmethyl)-1H-tetrazole] reads 7.40.

The values above are taken from US7875647B2, “Heteroaryl-pyrazole derivatives as cannabinoid CB1 receptor antagonists” (Green Cross Corporation, priority 2006, dated 2011).
